In patent publication US20140171427A1, “Heterocyclic chromene-spirocyclic piperidine amides as modulators of ion channels” (VERTEX PHARMACEUTICALS INCORPORATED, priority 2010, published 2014):

target: human NaV subtype; test: E-VIPR optical membrane potential assay with electrical stimulation; type: cell-based; conditions: active against one or more sodium channels; assay and NaV subtype not specified for Table 3; read-out: Binned Activity Data (IC50)
Text: E-VIPR Optical Membrane Potential Assay Method with Electrical Stimulation
Sodium channels are voltage-dependent proteins that can be activated by inducing membrane voltage changes by applying electric fields. The electrical stimulation instrument and methods of use are described in Ion Channel Assay Methods PCT/US01/21652, herein incorporated by reference and are referred to as E-VIPR. The instrument comprises a microtiter plate handler, an optical system for exciting the coumarin dye while simultaneously recording the coumarin and oxonol emissions, a waveform generator, a current- or voltage-controlled amplifier, and a device for inserting electrodes in well. Under integrated computer control, this instrument passes user-programmed electrical stimulus protocols to cells within the wells of the microtiter plate.
24 hours before the assay on E-VIPR, HEK cells expressing human NaV subtype, like NaV 1.7, are seeded in 384-well poly-lysine coated plates at 15,000-20,000 cells per well. Other subtypes are performed in an analogous mode in a cell line expressing the NaV of interest. HEK cells are grown in media (exact composition is specific to each cell type and NaV subtype) supplemented with 10% FBS (Fetal Bovine Serum, qualified; GibcoBRL #16140-071) and 1% Pen-Strep (Penicillin-Streptomycin; GibcoBRL #15140-122). Cells are grown in vented cap flasks, in 90% humidity and 10% CO2, to 100% confluence. They are usually split by trypsinization 1:10 or 1:20, depending on scheduling needs, and grown for 2-3 days before the next split.
100 mg/mL Pluronic F-127 (Sigma #P2443), in dry DMSO
Compound Plates: 384-well round bottom plate, e.g. Corning 384-well Polypropylene Round Bottom #3656
Cell Plates: 384-well tissue culture treated plate, e.g. Greiner #781091-1B
Bath1 buffer. Glucose 10 mM (1.8 g/L), Magnesium Chloride (Anhydrous), 1 mM (0.095 g/L), Calcium Chloride, 2 mM (0.222 g/L), HEPES 10 mM (2.38 g/L), Potassium Chloride, 4.5 mM (0.335 g/L), Sodium Chloride 160 mM (9.35 g/L).
Hexyl Dye Solution: Bath1 Buffer+0.5% β-cyclodextrin (make this prior to use, Sigma #C4767), 8 μM CC2-DMPE+DiSBAC6(3). To make the solution Add volume of 10% Pluronic F127 stock equal to volumes of CC2-DMPE+DiSBAC6(3). The order of preparation is first mix Pluronic and CC2-DMPE, then add DiSBAC6(3) while vortexing, then add Bath1+β-Cyclodextrin.
1) Pre-spot compounds (in neat DMSO) into compound plates. Vehicle control (neat DMSO), the positive control (20 mM DMSO stock tetracaine, 125 μM final in assay) and test compounds are added to each well at 160× desired final concentration in neat DMSO. Final compound plate volume will be 80 μL (80-fold intermediate dilution from 1 μL DMSO spot; 160-fold final dilution after transfer to cell plate). Final DMSO concentration for all wells in assay is 0.625%.
2) Prepare Hexyl Dye Solution.
3) Prepare cell plates. On the day of the assay, medium is aspirated and cells are washed three times with 100 μL of Bathl Solution, maintaining 25 μL residual volume in each well.
4) Dispense 25 μL per well of Hexyl Dye Solution into cell plates. Incubate for 20-35 minutes at room temp or ambient conditions.
5) Dispense 80 μL per well of Bathl into compound plates. Acid Yellow-17 (1 mM) is added and Potassium Chloride can be altered from 4.5 to 20 mM depending on the NaV subtype and assay sensitivity.
6) Wash cell plates three times with 100 μL per well of Bathl, leaving 25 μL of residual volume. Then transfer 25 uL per well from Compound Plates to Cell Plates. Incubate for 20-35 minutes at room temp/ambient condition
7) Read Plate on E-VIPR. Use the current-controlled amplifier to deliver stimulation wave pulses for typically 9 seconds and a scan rate of 400 Hz. A pre-stimulus recording is performed for 0.5 seconds to obtain the un-stimulated intensities baseline. The stimulatory waveform is applied for 9 seconds followed by 0.5 seconds of post-stimulation recording to examine the relaxation to the resting state. […]

human NaV subtype, sequence (Q15858 whole entry): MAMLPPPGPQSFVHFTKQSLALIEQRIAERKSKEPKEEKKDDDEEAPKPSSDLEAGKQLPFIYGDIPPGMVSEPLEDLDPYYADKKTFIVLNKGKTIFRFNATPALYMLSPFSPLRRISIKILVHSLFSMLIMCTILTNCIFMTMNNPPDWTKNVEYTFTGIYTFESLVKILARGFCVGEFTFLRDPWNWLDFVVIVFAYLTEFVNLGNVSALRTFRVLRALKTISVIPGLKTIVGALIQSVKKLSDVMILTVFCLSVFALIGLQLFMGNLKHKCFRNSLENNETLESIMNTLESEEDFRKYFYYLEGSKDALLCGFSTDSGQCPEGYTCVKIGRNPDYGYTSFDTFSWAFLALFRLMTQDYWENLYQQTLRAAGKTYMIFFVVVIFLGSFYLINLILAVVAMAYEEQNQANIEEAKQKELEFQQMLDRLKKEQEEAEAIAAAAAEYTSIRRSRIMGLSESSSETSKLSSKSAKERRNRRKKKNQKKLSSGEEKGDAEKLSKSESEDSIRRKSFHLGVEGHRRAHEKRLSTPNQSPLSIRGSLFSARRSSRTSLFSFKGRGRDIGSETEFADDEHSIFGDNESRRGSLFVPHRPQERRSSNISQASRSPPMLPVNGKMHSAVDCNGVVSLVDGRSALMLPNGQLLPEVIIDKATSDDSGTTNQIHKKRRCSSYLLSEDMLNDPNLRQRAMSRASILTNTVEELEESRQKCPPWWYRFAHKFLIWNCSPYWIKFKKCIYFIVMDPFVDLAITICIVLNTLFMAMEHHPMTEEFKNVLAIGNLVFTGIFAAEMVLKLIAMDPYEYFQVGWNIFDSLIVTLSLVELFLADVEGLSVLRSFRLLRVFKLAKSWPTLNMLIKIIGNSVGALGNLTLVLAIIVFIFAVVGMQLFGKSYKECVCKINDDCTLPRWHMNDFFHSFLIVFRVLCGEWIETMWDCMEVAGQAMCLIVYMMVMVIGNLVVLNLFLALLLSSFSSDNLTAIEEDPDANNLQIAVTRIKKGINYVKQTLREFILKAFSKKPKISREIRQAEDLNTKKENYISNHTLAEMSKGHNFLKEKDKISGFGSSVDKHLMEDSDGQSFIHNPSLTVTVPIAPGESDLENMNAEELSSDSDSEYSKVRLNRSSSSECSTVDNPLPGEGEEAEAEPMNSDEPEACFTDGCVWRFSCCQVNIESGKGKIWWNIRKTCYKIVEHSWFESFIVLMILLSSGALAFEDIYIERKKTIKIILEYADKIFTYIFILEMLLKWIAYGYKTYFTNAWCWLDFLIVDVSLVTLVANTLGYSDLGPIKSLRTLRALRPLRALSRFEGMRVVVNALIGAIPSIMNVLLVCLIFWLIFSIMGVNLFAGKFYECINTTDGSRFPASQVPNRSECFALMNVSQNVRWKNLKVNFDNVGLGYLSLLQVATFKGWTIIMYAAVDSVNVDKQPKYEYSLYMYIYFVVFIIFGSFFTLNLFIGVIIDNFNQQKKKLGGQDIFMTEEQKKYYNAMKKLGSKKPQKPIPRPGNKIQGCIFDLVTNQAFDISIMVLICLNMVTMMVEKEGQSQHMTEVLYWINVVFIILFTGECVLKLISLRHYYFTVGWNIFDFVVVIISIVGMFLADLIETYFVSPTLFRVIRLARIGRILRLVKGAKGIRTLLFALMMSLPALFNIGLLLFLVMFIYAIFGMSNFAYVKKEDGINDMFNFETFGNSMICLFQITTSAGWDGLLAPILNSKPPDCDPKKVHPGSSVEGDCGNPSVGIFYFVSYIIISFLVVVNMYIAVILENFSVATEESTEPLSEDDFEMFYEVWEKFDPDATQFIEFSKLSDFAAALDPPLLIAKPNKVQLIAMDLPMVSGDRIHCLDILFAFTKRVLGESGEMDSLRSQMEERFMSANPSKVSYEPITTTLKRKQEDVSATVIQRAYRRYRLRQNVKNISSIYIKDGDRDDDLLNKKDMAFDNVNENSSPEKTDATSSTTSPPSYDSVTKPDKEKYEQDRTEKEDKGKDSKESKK

Compound	IC50 [nM]
COc1cc(C(=O)N2CCC3(CC2)Oc2ccccc2-n2c(C#N)ccc23)ccc1OC[C@@H](O)CO [Compound 680]	< 2000
COC(=O)C(C)(C)c1ccc(C(=O)N2CCC3(CC2)Oc2ccccc2-c2c3cnn2C)cc1OC [Compound 403]	< 2000
Cc1cc(C(=O)N2CCC3(CC2)Oc2ccccc2-n2c(C#N)ccc23)ccc1[C@@](C)(O)CO [Compound 54]	< 2000
C[C@](O)(CO)c1ccc(C(=O)N2CCC3(CC2)Oc2ccccc2-n2c(C(F)(F)F)ccc23)cc1 [Compound 640]	< 2000
N#Cc1ccc2n1-c1ccccc1OC21CCN(C(=O)c2ccc(C(F)(F)F)cc2)CC1 [Compound 481]	> 5000
COc1cc(C(=O)N2CCC3(CC2)Oc2cc(F)ccc2-n2cccc23)ccc1OC[C@H](O)CO [Compound 606]	< 2000
